Where “and” joins values, the source holds several entries; their conditions need not be identical. Equal entries are not always repeated.
System: COG-N-426x-FELIX
Test: Pre-clinical efficacy study, COG-N-426x-FELIX PDX
Format: in vivo, mouse
Details: for Tumor Volume: COG-N-426x-FELIX tumor re-challenge (24 MBq/kg/fraction x 4); for EFS by AOC method / Tumor response (% growth from study initiation at ~ 200 mm3): single mouse
Method: Patient demographics and genetic characteristics are listed in (Supplementary Tables 1, 2)[17]. The maximum tolerated dose (MTD) was determined to be 36 MBq/kg administered by intra-peritoneal injection twice weekly for a total of 4 dose fractions and this fractionated regimen was used in all studies (Supplementary Fig. 1)[18],[19]. […] Nine of 11 PDX models were MYCN amplified (Fig. 1b), which is a hallmark of high-risk neuroblastoma. Tumor response was measured as the maximum percent decrease in tumor volume after treatment and event-free survival (EFS) was measured by the area over the curve method with tumor events pre-defined by tumor growth exceeding 2 cm[3],[18].
The use of 2 mice per arm was based on the previously reported statistical analysis. PDX tumors were implanted into the right flank of 5 to 6-weeks old female mice weighing about 20–25 grams. […] Two additional dose levels of 12, and 24 MBq/kg/fraction were assessed in a subset of models and were administered as stated above. In two models treated at the 24 MBq/kg/fraction dose level we re-challenged tumor response at the time of tumor progression with an additional 4 dose fractions at 24 MBq/kg/fraction given twice weekly. Doses were prepared in 500 µL total volume. An equal volume of saline was used for the vehicle group. Tumors were measured using a digital caliper at the initiation of the study and two times per week during the treatment period. Tumor volumes were calculated as volume = ([…]∗0.5236)/1000. Weights were obtained twice weekly and mice were monitored daily for signs of toxicity. […] Tumor response was assessed by best response defined as greatest reduction in tumor volume following the last dose and is presented as percent change in tumor volume. Event-free survival was determined by area over the curve method that calculates the time to tumor event, which was defined as tumors reaching or exceeding a size ≥ 2 cm^3.
Animal studies were performed in female mice due to the lack of sex-related differences for [^211At]PTT tolerability from initial dose response studies performed in female and male mice. Female mice were chosen due to their underlying behavior towards other study subjects that reduced nonstudy-related causes for decreased wellness. Pre-clinical efficacy studies were performed through “single mouse testing” to more closely recapitulate a clinical trial. […] Number size for treatment groups was determined by model tumor growth reproducibility, which was previously shown to have less than 5% normal variation with at least two animals. Statistical tests for tumor response and event-free survival (EFS) were performed as a grouped analysis that included all tumor models treated at each respective dose level (n = 2 per model per dose level). Statistical differences between treatment groups for tumor response was performed by paired-model T-test that compared reduction in tumor volume for the 36 MBq/kg dose level vs. 24 MBq/kg or 12 MBq/kg. Event free survival was measured by area over the curve method to quantify time to event, which was set as tumor growth exceeding 2 cm[3],[19]. Differences in EFS were tested across all treated models for each respective dose level, and against untreated controls, by paired-model ANOVA analysis. Associations of drug target expression and response were performed by linear regression analysis of EFS and PARP1 mRNA expression. Genetic signatures were visually presented as a function of EFS and no statistical tests were applied. Blood and marrow toxicity studies were performed with n = 5 sample sizes and powered to detect >20% differences between untreated controls and treated animals. Results were tested for significance by one-way ANOVA comparison from untreated controls. Marrow colony formation assays were performed in replicates of 2 for each mouse subject, dependent on marrow isolation, and all replicates are included in final analyses. […]

[1] = COG-N-426x-FELIX, 24 MBq/kg/fraction x 4 fractions
[2] = COG-N-426x-FELIX, 36 MBq/kg/fraction x 4 fractions

SMILES: O=C1NCCn2c(-c3ccc([211At])cc3)nc3cccc1c32 [[^211At]PTT, Astatine-211-parthanatine]
- Tumor Volume (week 0): 0.25 cm3
- Tumor Volume (week 0.4): 0.2 cm3
- Tumor Volume (week 0.9): 0.05 cm3
- Tumor Volume (week 1.3): 0.08 cm3
- Tumor Volume (week 1.9): 0.01 cm3
- Tumor Volume (week 2.3): 0.01 cm3
- Tumor Volume (week 2.9): 0 cm3
- Tumor Volume (week 3.4): 0.01 cm3
- Tumor Volume (week 3.9): 0 cm3
- Tumor Volume (week 4.4): 0 cm3
- Tumor Volume (week 4.9): 0 cm3
- Tumor Volume (week 5.3): 0 cm3
- Tumor Volume (week 5.9): 0 cm3
- Tumor Volume (week 6.3): 0.02 cm3
- Tumor Volume (week 6.9): 0.19 cm3
- Tumor Volume (week 7.3): 0.13 cm3
- Tumor Volume (week 7.9): 0.03 cm3
- Tumor Volume (week 8.3): 0.02 cm3
- Tumor Volume (week 8.9): 0 cm3
- Tumor Volume (week 9.3): 0 cm3
- Tumor Volume (week 9.9): 0 cm3
- Tumor Volume (week 10.3): 0 cm3
- Tumor Volume (week 10.9): 0 cm3
- Tumor Volume (week 11.3): 0 cm3
- Tumor Volume (week 11.9): 0 cm3
- Tumor Volume (week 12.3): 0 cm3
- Tumor Volume (week 12.9): 0 cm3
- Tumor Volume (week 13.3): 0 cm3
- Tumor Volume (week 13.9): 0 cm3
- Tumor Volume (week 14.3): 0 cm3
- Tumor Volume (week 14.9): 0 cm3
- EFS1 (initial treatment) (COG-N-426x-FELIX, 24 MBq/kg/fraction x 4, re-challenged mouse n = 1): 49 days and 49.5 days
- EFS by AOC method [1]: 103. 9 Days
- Tumor response (% growth from study initiation at ~ 200 mm3) [1]: -100%
- EFS by AOC method [2]: 104. 1 Days and 104.134 Days and 104.127 Days
- Tumor response (% growth from study initiation at ~ 200 mm3) [2]: -100%
- EFS2 (re-challenge treatment) (COG-N-426x-FELIX, re-challenge 24 MBq/kg/fraction x 4 at tumor progression, no measurable disease): 59 days
